Measurements taken from BindingDB's records for doi:10.1016/j.bmcl.2003.09.094 (Cv Therapeutics, 2003).

Molecular target: Adenosine receptor A1 (hamster)
Assay: Binding affinity for adenosine A1 receptor determined using hamster DDT1 cell membranes with [3H]CCPA as radioligand

| Compound | Ki [nM] |
| --- | --- |
| C=CCNC(=O)OC[C@H]1OC(n2cnc3c(NC4CCOC4)ncnc32)[C@H](O)[C@@H]1O (stereo partly drawn) [Allyl-carbamic acid (2R,3S,4R)-3,4-dihydroxy-5-{6-[(R)-(tetrahydro-furan-3-yl)amino]-purin-9-yl}-tetrahydro-furan-2-ylmethyl ester] | 524 |
| C=CCNC(=S)OC[C@H]1OC(n2cnc3c(NC4CCOC4)ncnc32)[C@H](O)[C@@H]1O (stereo partly drawn) [Allyl-thiocarbamic acid (2R,3S,4R)-3,4-dihydroxy-5-{6-[(R)-(tetrahydro-furan-3-yl)amino]-purin-9-yl}-tetrahydro-furan-2-ylmethyl ester] | 35 |
| O=C(NCc1ccccc1)OC[C@H]1OC(n2cnc3c(NC4CCOC4)ncnc32)[C@H](O)[C@@H]1O (stereo partly drawn) [Benzyl-carbamic acid (2R,3S,4R)-3,4-dihydroxy-5-{6-[(R)-(tetrahydro-furan-3-yl)amino]-purin-9-yl}-tetrahydro-furan-2-ylmethyl ester] | 1830 |
| O[C@@H]1[C@@H](COC(=S)NCc2ccccc2)OC(n2cnc3c(NC4CCOC4)ncnc32)[C@@H]1O (stereo partly drawn) [Benzyl-thiocarbamic acid (2R,3S,4R)-3,4-dihydroxy-5-{6-[(R)-(tetrahydro-furan-3-yl)amino]-purin-9-yl}-tetrahydro-furan-2-ylmethyl ester] | 12 |
| CCCCNC(=O)OC[C@H]1OC(n2cnc3c(NC4CCOC4)ncnc32)[C@H](O)[C@@H]1O (stereo partly drawn) [Butyl-carbamic acid (2R,3S,4R)-3,4-dihydroxy-5-{6-[(R)-(tetrahydro-furan-3-yl)amino]-purin-9-yl}-tetrahydro-furan-2-ylmethyl ester] | 1410 |
| CCCCNC(=S)OC[C@H]1OC(n2cnc3c(NC4CCOC4)ncnc32)[C@H](O)[C@@H]1O (stereo partly drawn) [Butyl-thiocarbamic acid (2R,3S,4R)-3,4-dihydroxy-5-{6-[(R)-(tetrahydro-furan-3-yl)amino]-purin-9-yl}-tetrahydro-furan-2-ylmethyl ester] | 157 |
| O=C(NC1CCC1)OC[C@H]1OC(n2cnc3c(NC4CCOC4)ncnc32)[C@H](O)[C@@H]1O (stereo partly drawn) [Cyclobutyl-carbamic acid (2R,3S,4R)-3,4-dihydroxy-5-{6-[(R)-(tetrahydro-furan-3-yl)amino]-purin-9-yl}-tetrahydro-furan-2-ylmethyl ester] | 306 |
| O[C@@H]1[C@@H](COC(=S)NC2CCC2)OC(n2cnc3c(NC4CCOC4)ncnc32)[C@@H]1O (stereo partly drawn) [Cyclobutyl-thiocarbamic acid (2R,3S,4R)-3,4-dihydroxy-5-{6-[(R)-(tetrahydro-furan-3-yl)amino]-purin-9-yl}-tetrahydro-furan-2-ylmethyl ester] | 148 |
| O=C(NC1CCCCC1)OC[C@H]1OC(n2cnc3c(NC4CCOC4)ncnc32)[C@H](O)[C@@H]1O (stereo partly drawn) [Cyclohexyl-carbamic acid (2R,3S,4R)-3,4-dihydroxy-5-{6-[(R)-(tetrahydro-furan-3-yl)amino]-purin-9-yl}-tetrahydro-furan-2-ylmethyl ester] | 584 |
| O[C@@H]1[C@@H](COC(=S)NC2CCCCC2)OC(n2cnc3c(NC4CCOC4)ncnc32)[C@@H]1O (stereo partly drawn) [Cyclohexyl-thiocarbamic acid (2R,3S,4R)-3,4-dihydroxy-5-{6-[(R)-(tetrahydro-furan-3-yl)amino]-purin-9-yl}-tetrahydro-furan-2-ylmethyl ester] | 253 |
| O=C(NC1CCCC1)OC[C@H]1OC(n2cnc3c(NC4CCOC4)nc(Cl)nc32)[C@H](O)[C@@H]1O (stereo partly drawn) [Cyclopentyl-carbamic acid (2R,3S,4R)-5-{2-chloro-6-[(R)-(tetrahydro-furan-3-yl)amino]-purin-9-yl}-3,4-dihydroxy-tetrahydro-furan-2-ylmethyl ester] | 226 |
| O[C@@H]1[C@@H](COC(=S)NC2CCCC2)OC(n2cnc3c(NC4CCOC4)ncnc32)[C@@H]1O (stereo partly drawn) [Cyclopentyl-thiocarbamic acid (2R,3S,4R)-3,4-dihydroxy-5-{6-[(R)-(tetrahydro-furan-3-yl)amino]-purin-9-yl}-tetrahydro-furan-2-ylmethyl ester] | 72 |
| O=C(NC1CC1)OC[C@H]1OC(n2cnc3c(NC4CCOC4)ncnc32)[C@H](O)[C@@H]1O (stereo partly drawn) [Cyclopropyl-carbamic acid (2R,3S,4R)-3,4-dihydroxy-5-{6-[(R)-(tetrahydro-furan-3-yl)amino]-purin-9-yl}-tetrahydro-furan-2-ylmethyl ester] | 209 |
| O[C@@H]1[C@@H](COC(=S)NC2CC2)OC(n2cnc3c(NC4CCOC4)ncnc32)[C@@H]1O (stereo partly drawn) [Cyclopropyl-thiocarbamic acid (2R,3S,4R)-3,4-dihydroxy-5-{6-[(R)-(tetrahydro-furan-3-yl)amino]-purin-9-yl}-tetrahydro-furan-2-ylmethyl ester] | 157 |
| CN(C)C(=O)OC[C@H]1OC(n2cnc3c(NC4CCOC4)ncnc32)[C@H](O)[C@@H]1O (stereo partly drawn) [Dimethyl-carbamic acid (2R,3S,4R)-3,4-dihydroxy-5-{6-[(R)-(tetrahydro-furan-3-yl)amino]-purin-9-yl}-tetrahydro-furan-2-ylmethyl ester] | 238 |
| CN(C)C(=S)OC[C@H]1OC(n2cnc3c(NC4CCOC4)ncnc32)[C@H](O)[C@@H]1O (stereo partly drawn) [Dimethyl-thiocarbamic acid (2R,3S,4R)-3,4-dihydroxy-5-{6-[(R)-(tetrahydro-furan-3-yl)amino]-purin-9-yl}-tetrahydro-furan-2-ylmethyl ester] | 205 |
| CCNC(=O)OC[C@H]1OC(n2cnc3c(NC4CCOC4)ncnc32)[C@H](O)[C@@H]1O (stereo partly drawn) [Ethyl-carbamic acid (2R,3S,4R)-3,4-dihydroxy-5-{6-[(R)-(tetrahydro-furan-3-yl)amino]-purin-9-yl}-tetrahydro-furan-2-ylmethyl ester] | 167 |
| CCNC(=S)OC[C@H]1OC(n2cnc3c(NC4CCOC4)ncnc32)[C@H](O)[C@@H]1O (stereo partly drawn) [Ethyl-thiocarbamic acid (2R,3S,4R)-3,4-dihydroxy-5-{6-[(R)-(tetrahydro-furan-3-yl)amino]-purin-9-yl}-tetrahydro-furan-2-ylmethyl ester] | 33 |
| CCNC(=S)OC[C@H]1OC(n2cnc3c(NC4CCOC4)nc(Cl)nc32)[C@H](O)[C@@H]1O (stereo partly drawn) [Ethyl-thiocarbamic acid (2R,3S,4R)-5-{2-chloro-6-[(R)-(tetrahydro-furan-3-yl)amino]-purin-9-yl}-3,4-dihydroxy-tetrahydro-furan-2-ylmethyl ester] | 55 |
| CC(C)NC(=O)OC[C@H]1OC(n2cnc3c(NC4CCOC4)ncnc32)[C@H](O)[C@@H]1O (stereo partly drawn) [Isopropyl-carbamic acid (2R,3S,4R)-3,4-dihydroxy-5-{6-[(R)-(tetrahydro-furan-3-yl)amino]-purin-9-yl}-tetrahydro-furan-2-ylmethyl ester] | 78 |
| CC(C)NC(=S)OC[C@H]1OC(n2cnc3c(NC4CCOC4)ncnc32)[C@H](O)[C@@H]1O (stereo partly drawn) [Isopropyl-thiocarbamic acid (2R,3S,4R)-3,4-dihydroxy-5-{6-[(R)-(tetrahydro-furan-3-yl)amino]-purin-9-yl}-tetrahydro-furan-2-ylmethyl ester] | 36 |
| CNC(=O)OC[C@H]1OC(n2cnc3c(NC4CCOC4)nc(Cl)nc32)[C@H](O)[C@@H]1O (stereo partly drawn) [Methyl-carbamic acid (2R,3S,4R)-5-{2-chloro-6-[(R)-(tetrahydro-furan-3-yl)amino]-purin-9-yl}-3,4-dihydroxy-tetrahydro-furan-2-ylmethyl ester] | 96 |
| CNC(=S)OC[C@H]1OC(n2cnc3c(NC4CCOC4)ncnc32)[C@H](O)[C@@H]1O (stereo partly drawn) [Methyl-thiocarbamic acid (2R,3S,4R)-3,4-dihydroxy-5-{6-[(R)-(tetrahydro-furan-3-yl)amino]-purin-9-yl}-tetrahydro-furan-2-ylmethyl ester] | 45 |
| CNC(=S)OC[C@H]1OC(n2cnc3c(NC4CCOC4)nc(Cl)nc32)[C@H](O)[C@@H]1O (stereo partly drawn) [Methyl-thiocarbamic acid (2R,3S,4R)-5-{2-chloro-6-[(R)-(tetrahydro-furan-3-yl)amino]-purin-9-yl}-3,4-dihydroxy-tetrahydro-furan-2-ylmethyl ester] | 71 |
| CCCNC(=O)OC[C@H]1OC(n2cnc3c(NC4CCOC4)ncnc32)[C@H](O)[C@@H]1O (stereo partly drawn) [Propyl-carbamic acid (2R,3S,4R)-3,4-dihydroxy-5-{6-[(R)-(tetrahydro-furan-3-yl)amino]-purin-9-yl}-tetrahydro-furan-2-ylmethyl ester] | 235 |
| CCCNC(=S)OC[C@H]1OC(n2cnc3c(NC4CCOC4)ncnc32)[C@H](O)[C@@H]1O (stereo partly drawn) [Propyl-thiocarbamic acid (2R,3S,4R)-3,4-dihydroxy-5-{6-[(R)-(tetrahydro-furan-3-yl)amino]-purin-9-yl}-tetrahydro-furan-2-ylmethyl ester] | 50 |
